Patent US20210299282A1, “Device for Collecting and Culturing Fish Embryos and Method for Evaluating Combined Toxicity of Thiamethoxam and Tetraconazole” (priority 2020, published 2021)
Converted amounts (≈) assume the structure as drawn.

Assays:
[1] = Toxicity test for single pesticide on zebrafish embryos (96 h semi-static exposure); format: in vivo, Zebrafish (Danio rerio); details: zebrafish, in vivo; after 96 hours of exposure; single pesticide; embryos exposed from 3 hpf; read-out: LC50 and 95% confidence limits for zebrafish embryos when used alone
Experimental: (§1) S1: The embryo culture component 3 is assembled; toxicity exposure is performed after 3 hours post-fertilization (3 hpf) of embryos; after collecting the zebrafish embryos for 3 hours, the abnormal and dead embryos are removed, and the normally divided embryos are picked out under an inverted microscope, and the selected embryos are loaded in into the culture well 34 in an amount of 10 embryos per well; after removing the water as much as possible, 10 mL of single pesticide solution with different concentrations are added to each well in the treatment group separately, and an equal volume of standard dilution water is added to the blank control group and the solvent control group, respectively. Three replicates are set for each treatment group, blank control group and solvent control group, and every 2 wells are served as one replicate, that is, 20 embryos are one replicate. Each test pesticide is set with 5 to 7 concentrations using serial dilution method with a geometrical ratio, and each concentration is set with three repeats.
(§2) S2: The semi-static method is used, that is, the medium in the wells are replaced with fresh pesticide solution every 24 hours, and the dead embryos are picked out in time. When the medium is replaced with the fresh pesticide solution, the top plate 32 is pulled up, the original culture medium flows through the leakage hole 35 into the cavity of the cavity plate 31, and then the original culture medium is poured out together. Then, the top plate 32 is mounted on the cavity plate 31, and the fresh pesticide solution is added to the culture well 34 loaded with embryos.
(§3) S3: After 96 hours of toxicity exposure, the embryo mortality and poisoning symptoms are recorded. Embryo death was characterized by egg coagulation, somite disruption, non-detachment of tail or lack of heartbeat; common symptoms of embryo poisoning include the following deformities: egg coagulation, pericardial edema, yolk sac edema, spine curvature, tail bending, and others (FIG. 5). The mortality M is calculated according to the formula (I),
(§4) In formula (I), D is the number of dead embryos and N is the total number of embryos. DPS statistical analysis software (version number: V15.10) is used to statistically analyze the mortality data of zebrafish embryos with the probabilistic value analysis method, and the 50% lethal concentration LC50 and 95% confidence limits of the fish embryos are calculated.

zebrafish embryos = test: as above; format: in vivo, Zebrafish (Danio rerio); details: single pesticide treatment group; 96 h exposure (tetraconazole: high concentration group)
Experimental: as §1, §2, §3, §4

SMILES	LC50 at 96 h [1] [µg/mL]	poisoning symptoms of zebrafish embryos (zebrafish embryos)
FC(F)C(F)(F)OCC(Cn1cncn1)c1ccc(Cl)cc1Cl (stereo not shown) [tetraconazole]	11 (≈ 29.5 µM)	pericardial edema, yolk sac edema, spine curvature, tail bending, and others were observed
CN1COCN(Cc2cnc(Cl)s2)/C1=N\[N+](=O)[O-] [thiamethoxam]	246 (≈ 844 µM)	not obvious
